Assay [1] concerns Enterobacter cloacae. Briefly: Activity of Enterobacter cloacae beta-lactamase OXA-1.
Assay [2] relates to Enterobacter cloacae. Description: Ratio of Kcat to Km of Enterobacter cloacae beta-lactamase OXA-1.
Assay [3] addresses Beta-lactamase TEM (Enterobacter cloacae) (UniProt Q6W9J1). Description: Ratio of Kcat to Km of Enterobacter cloacae beta-lactamase TEM-1.

Sequence of Beta-lactamase TEM (Enterobacter cloacae) (Q6W9J1 as listed by the source): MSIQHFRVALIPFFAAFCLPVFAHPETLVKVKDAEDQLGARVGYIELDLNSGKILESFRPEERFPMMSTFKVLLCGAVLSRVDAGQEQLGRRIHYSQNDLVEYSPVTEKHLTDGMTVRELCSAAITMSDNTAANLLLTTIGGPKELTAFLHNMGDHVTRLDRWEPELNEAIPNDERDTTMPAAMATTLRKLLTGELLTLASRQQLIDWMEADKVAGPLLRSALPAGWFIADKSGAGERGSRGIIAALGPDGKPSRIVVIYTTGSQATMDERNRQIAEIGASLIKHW

With `CC(=O)OCC1=C(C(=O)O)N2C(=O)[C@@H](NC=O)[C@H]2SC1`, in the assay with Enterobacter cloacae [1], the Km was found to be 323 µM and the kcat was determined as 1.02 s⁻¹. Moreover, the Ratio in the assay with Enterobacter cloacae [2] was found to be 3160 s⁻¹ M⁻¹. Moreover, in assay [3], the Ratio was determined as 6 ×10⁴ /s/M.
On to `CC1=C(C(=O)O)N2C(=O)/C(=N/O)[C@H]2S(=O)(=O)C1`, for which the Ratio in assay [3] was determined as 40 s⁻¹ M⁻¹.
Take `CC(=O)OCC1=C(C(=O)O)N2C(=O)[C@@H](N(O)C(=O)Cc3ccccc3)[C@H]2SC1`: in the assay on Enterobacter cloacae [1], the Km was found to be 60 µM and the kcat came out at 0.121 s⁻¹. Further, the Ratio in the assay with Enterobacter cloacae [2] turned out to be 2020 s⁻¹ M⁻¹. Moreover, the Ratio in assay [3] worked out at 2620 s⁻¹ M⁻¹.
On to `CC(=O)OCC1=C(C(=O)O)N2C(=O)[C@@H](N(O)C=O)[C@H]2SC1`, for which, in the assay with Enterobacter cloacae [1], the Km is above 400 µM. Also, the Ratio in the assay on Enterobacter cloacae [2] stood at 75 s⁻¹ M⁻¹; in assay [3] it was 25 s⁻¹ M⁻¹.
Consider `CC(=O)OCC1=C(C(=O)O)N2C(=O)[C@@H](NC(=O)Cc3cccs3)[C@H]2SC1`, for which, in the assay on Enterobacter cloacae [1], the Km turned out to be 13.9 µM and the kcat came out at 1.81 s⁻¹. The Ratio in the assay with Enterobacter cloacae [2] is 8.51 ×10⁴ /s/M. For the same compound, the Ratio in assay [3] worked out at 4.85 ×10⁵ /s/M.
In the case of `CC(=O)OCC1=C(C(=O)O)N2C(=O)[C@@H](NO)[C@H]2SC1`, the Km with Enterobacter cloacae [1] was above 400 µM. In addition, the Ratio was determined as 66 s⁻¹ M⁻¹ in the assay on Enterobacter cloacae [2] and 2620 s⁻¹ M⁻¹ in assay [3].
In the same order, the values of `CC(=O)OCC1=C(C(=O)O)N2C(=O)/C(=N/O)[C@H]2SC1` are above 400 µM, 88 s⁻¹ M⁻¹ and 158 s⁻¹ M⁻¹.
`CC(=O)OCC1=C(C(=O)O)N2C(=O)/C(=N/O)[C@H]2S(=O)(=O)C1`: the Km with Enterobacter cloacae [1] was above 400 µM. Besides, the Ratio was found to be 990 s⁻¹ M⁻¹ in the assay with Enterobacter cloacae [2] and 1690 s⁻¹ M⁻¹ in assay [3].

The record behind these values is ChEMBL document CHEMBL1153321, “Approaches to the simultaneous inactivation of metallo- and serine-beta-lactamases” (Bioorg Med Chem Lett, 2009).
